According to US10508109B2 (priority 2015, dated 2019):
Counter-ions that a name gives are not always drawn. Like-named read-outs stand apart in the source and are kept apart here.

Tests used:
[1] = target: SUV39H2 (Homo sapiens (Human), UniProt Q9H5I1); conditions: read-out: IC50 (μM) Suv 39H2 assay
[2] = tested on: A549; experiment: Cell-based assay, anti-proliferative activity (Cell Counting Kit-8, 72 hours); conditions: Homo sapiens
Description: 100 micro-L of cell suspension was seeded onto 96-well microtiter plate (ViewPlate-96FTC, PerkinElmer). […] Cellular growth was determined using Cell Counting Kit-8 (DOJINDO) at 72 hours after the exposure of the candidate inhibitors. […] Accurate IC50 values were calculated as described previously.

[3] = tested on: HCT-116; experiment: as above; conditions: Homo sapiens, read-out: IC50 (μM) HCT-116
Description: (§1) Active candidate inhibitors against SUV39H2 were evaluated for their target-specific cytotoxicity using A549, HCT-116, HFL1, CCD-18Co and PC14. 100 micro-L of cell suspension was seeded onto 96-well microtiter plate (ViewPlate-96FTC, PerkinElmer). The initial cell concentration of A549, HCT-116, HFL1, CCD-18Co and PC14 were 3,000 cells/well, 2,000 cells/well and 2,500 cells/well, respectively. Cellular growth was determined using Cell Counting Kit-8 (DOJINDO) at 72 hours after the exposure of the candidate inhibitors. IC50 was used as an indicator of the anti-proliferative activity of the inhibitors, and calculated by serial dilution method (0, 1.5625, 3.125, 6.25, 12.5, 25, 50, and 100 micro-M). Accurate IC50 values were calculated as described previously.

[4] = tested on: HFL1; experiment: as above; conditions: Homo sapiens, read-out: IC50 (μM) HFL1
Description: as §1

[5] = tested on: CCD-18Co; experiment: as above; conditions: Homo sapiens, read-out: IC50 (μM) CCD-18Co
Description: as §1

[6] = A549, 72 h, read-out: IC50 (μM) A549
[7] = A549 cells, Cell Counting Kit-8, 72 hours, read-out: IC50 (μM) A549
[8] = HCT-116 cells, Cell Counting Kit-8, 72 hours
[9] = HFL1 cells, Cell Counting Kit-8, 72 hours
[10] = CCD-18Co cells, Cell Counting Kit-8, 72 hours
[11] = A549 cells, 72 hours exposure, Cell Counting Kit-8, read-out: A549 IC50

SUV39H2, sequence (Q9H5I1 whole entry): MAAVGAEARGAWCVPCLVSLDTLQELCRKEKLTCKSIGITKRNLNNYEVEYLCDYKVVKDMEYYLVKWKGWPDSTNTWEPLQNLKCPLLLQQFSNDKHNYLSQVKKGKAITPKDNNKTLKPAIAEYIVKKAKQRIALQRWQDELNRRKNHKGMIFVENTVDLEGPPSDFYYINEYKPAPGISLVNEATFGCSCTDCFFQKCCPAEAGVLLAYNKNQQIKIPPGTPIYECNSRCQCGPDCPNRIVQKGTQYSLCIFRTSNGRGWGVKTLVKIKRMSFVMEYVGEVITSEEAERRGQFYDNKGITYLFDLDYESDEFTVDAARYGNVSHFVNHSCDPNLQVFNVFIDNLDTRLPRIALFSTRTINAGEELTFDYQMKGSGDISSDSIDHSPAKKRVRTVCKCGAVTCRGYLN

Compound “3-amino-N-(3-(2-(5-bromo-2,4-dimethoxyphenyl)imidazo[1,2-a]pyrimidin-7-yl)cyclopentyl)propanamide hydrochloride [Example 68]” has an IC50 ([1]; enzyme assay) of 0.0162 µM.
In the case of COc1cc(OC)c(-c2cn3ccc(N4CCCC4)cc3n2)cc1Br [Example 1, 2-(5-bromo-2,4-dimethoxyphenyl)-7-(pyrrolidin-1-yl)imidazo[1,2-a]pyridine], the IC50 [2, 6] is reported as 2.5 µM, the IC50 ([3]; HCT-116, 72 h) is reported as 1.7 µM and the IC50 ([4]; HFL1, 72 h) is reported as 1.6 µM. It also gave an IC50 ([5]; CCD-18Co, 72 h) of 2.6 µM and an IC50 ([1]; enzyme assay) of 0.0182 µM.
Compound COc1cc(OC)c(-c2cn3ccc(N)nc3n2)cc1Br [Example 2, 2-(5-bromo-2,4-dimethoxyphenyl)imidazo[1,2-a]pyrimidin-7-amine hydrochloride] has an IC50 [2, 6] of 18 µM, an IC50 ([3]; HCT-116, 72 h) of 17 µM and an IC50 ([4]; HFL1, 72 h) of 16 µM. It also gave an IC50 ([5]; CCD-18Co, 72 h) of 16 µM and an IC50 [1] of 0.0169 µM.
Work on COc1cc(OC)c(-c2cn3ccc(N)cc3n2)cc1Br [Example 5, 2-(5-bromo-2,4-dimethoxyphenyl)imidazo[1,2-a]pyridin-7-amine] yielded an IC50 [2, 7] of 3.6 µM, an IC50 [3, 8] of 3.1 µM and an IC50 [4, 9] of 2.1 µM. For the same compound, the IC50 [5, 10] was 3.8 µM and the IC50 ([1]; enzyme assay) was 0.0103 µM.
COc1cc(OC)c(-c2cn3ccc(N)nc3n2)cc1Cl [Example 8, 2-(5-chloro-2,4-dimethoxyphenyl)imidazo[1,2-a]pyrimidin-7-amine] was tested, and the IC50 [2, 7] was 17 µM, the IC50 [3, 8] was 16 µM and the IC50 [4, 9] was 21 µM. The IC50 [5, 10] was 19 µM and the IC50 ([1]; enzyme assay) was 0.0182 µM.
COc1cc(OC)c(-c2cn3ccc(NCCN)cc3n2)cc1Cl [Example 10, N^1-(2-(5-chloro-2,4-dimethoxyphenyl)imidazo[1,2-a]pyridin-7-yl)ethane-1,2-diamine dihydrochloride] showed an IC50 [2, 6] of 6.8 µM, an IC50 ([3]; HCT-116, 72 h) of 4.2 µM and an IC50 ([4]; HFL1, 72 h) of 3.7 µM. For the same compound, the IC50 ([5]; CCD-18Co, 72 h) was 7.1 µM and the IC50 [1] was 0.015 µM.
With COc1cc(OC)c(-c2cn3ccc(N4CCC(NC(=O)OC(C)(C)C)C4)nc3n2)cc1Br (stereo not shown) [Example 13] the IC50 [2, 7] was 5.7 µM, the IC50 [3, 8] was 6.6 µM and the IC50 [4, 9] was 3.7 µM. It also gave an IC50 [5, 10] of 4.4 µM and an IC50 ([1]; enzyme assay) of 0.0219 µM.
Compound COc1cc(OC)c(-c2cn3ccc(N4CCC(NC(=O)OC(C)(C)C)CC4)cc3n2)cc1Cl [Example 14, tert-butyl {1-[2-(5-chloro-2,4-dimethoxyphenyl)imidazo[1,2-a]pyridin-7-yl]piperidin-4-yl}carbamate] has an IC50 [2, 7] of 2.7 µM, an IC50 [3, 8] of 2 µM and an IC50 [4, 9] of 1.8 µM. For the same compound, the IC50 [5, 10] was 1.9 µM and the IC50 ([1]; enzyme assay) was 0.0341 µM.
COc1cc(OC)c(-c2cn3ccc(N4CCC(N)CC4)cc3n2)cc1Cl [Example 15, 1-[2-(5-chloro-2,4-dimethoxyphenyl)imidazo[1,2-a]pyridin-7-yl]piperidin-4-amine] was tested, and the IC50 [2, 7] was 3.5 µM, the IC50 [3, 8] was 3.4 µM and the IC50 [4, 9] was 2.7 µM. The IC50 [5, 10] was 6.7 µM and the IC50 ([1]; enzyme assay) was 0.0133 µM.
COc1cc(OC)c(-c2cn3ccc(N4CCC(CN)CC4)cc3n2)cc1Cl [Example 16, (1-(2-(5-Chloro-2,4-dimethoxyphenyl)imidazo[1,2-a]pyridin-7-yl)piperidin-4-yl)-methanamine hydrochloride] gave an IC50 [2, 6] of 8.8 µM, an IC50 ([3]; HCT-116, 72 h) of 8.7 µM and an IC50 ([4]; HFL1, 72 h) of 11 µM. For the same compound, the IC50 ([5]; CCD-18Co, 72 h) was 14 µM and the IC50 [1] was 0.0122 µM.
COc1cc(OC)c(-c2cn3ccc(N4CCNCC4)cc3n2)cc1Cl [Example 17, 2-(5-chloro-2,4-dimethoxyphenyl)-7-(piperazin-1-yl)imidazo[1,2-a]pyridine] gave an IC50 [2, 7] of 6.1 µM, an IC50 [3, 8] of 4.5 µM and an IC50 [4, 9] of 3.3 µM. The IC50 [5, 10] was 8.6 µM and the IC50 ([1]; enzyme assay) was 0.0195 µM.
In the case of COc1cc(OC)c(-c2cn3ccc(NCCNC(=O)OC(C)(C)C)nc3n2)cc1Br [Example 18, tert-butyl (2-((2-(5-bromo-2,4-dimethoxyphenyl)imidazo[1,2-a]pyrimidin-7-yl)amino)ethyl)carbamate], the IC50 [2, 7] is reported as 14 µM, the IC50 [3, 8] is reported as 13 µM and the IC50 [4, 9] is reported as 11 µM. For the same compound, the IC50 [5, 10] was 12 µM and the IC50 ([1]; enzyme assay) was 0.0884 µM.
Compound COc1cc(OC)c(-c2cn3ccc(N4CCC(N)C4)nc3n2)cc1Br (stereo not shown) [Example 19, hydrochloride] has an IC50 [2, 6] of 11 µM, an IC50 ([3]; HCT-116, 72 h) of 7.9 µM and an IC50 ([4]; HFL1, 72 h) of 4.2 µM. For the same compound, the IC50 ([5]; CCD-18Co, 72 h) was 16 µM and the IC50 [1] was 0.0292 µM.
In the case of COc1cc(OC)c(-c2cn3ccc(O)cc3n2)cc1Cl [Example 20, 2-(5-chloro-2,4-dimethoxyphenyl)imidazo[1,2-a]pyridin-7-ol], the IC50 ([1]; enzyme assay) is reported as 0.09 µM.
Work on COc1cc(OC)c(-c2cn3ccc(N4CCC(NC(N)=O)C4)cc3n2)cc1Cl (stereo not shown) [Example 38, 1-(1-(2-(5-chloro-2,4-dimethoxyphenyl)imidazo[1,2-a]pyridin-7-yl)pyrrolidin-3-yl)urea] yielded an IC50 ([1]; enzyme assay) of 0.00411 µM.
In the case of COc1cc(OC)c(-c2cn3ccc(N4CCC(NC(=O)[C@H](CCC(N)=O)NC(=O)OC(C)(C)C)C4)cc3n2)cc1Cl (stereo partly drawn) [Example 39, tert-butyl ((2S)-5-amino-1-((1-(2-(5-chloro-2,4-dimethoxyphenyl)imidazo[1,2-a]pyridin-7-yl)pyrrolidin-3-yl)amino)-1,5-dioxopentan-2-yl)carbamate], the IC50 ([1]; enzyme assay) is reported as 0.00489 µM.
COc1cc(OC)c(-c2cn3ccc(N)nc3n2)cc1C#N [Example 46, 5-(7-aminoimidazo[1,2-a]pyrimidin-2-yl)-2,4-dimethoxybenzonitrile] gave an IC50 ([1]; enzyme assay) of 0.0453 µM.
With COc1cc(OC)c(-c2cn3ccc(N4CCC(NC(=O)CCN)C4)cc3n2)cc1Cl (stereo not shown) [Example 50, 3-amino-N-(1-(2-(5-chloro-2,4-dimethoxyphenyl)imidazo[1,2-a]pyridin-7-yl)pyrrolidin-3-yl)propanamide] the IC50 ([1]; enzyme assay) was 0.00575 µM.
COc1cc(OC)c(-c2cn3ccc(N4CCC(NC(=O)NCCN)C4)cc3n2)cc1Cl (stereo not shown) [Example 62, 1-(2-aminoethyl)-3-(1-(2-(5-chloro-2,4-dimethoxyphenyl)imidazo[1,2-a]-pyridin-7-yl)pyrrolidin-3-yl)urea] showed an IC50 ([1]; enzyme assay) of 0.00514 µM.
In the case of COc1cc(OC)c(-c2cn3ccc(NCCN4CCCCC4)cc3n2)cc1Cl [Example 64, 2-(5-chloro-2,4-dimethoxyphenyl)-N-(2-(piperidin-1-yl)ethyl)imidazo[1,2-a]pyridine-7-amine], the IC50 [2, 6] is reported as 4.2 µM, the IC50 ([3]; HCT-116, 72 h) is reported as 3.4 µM and the IC50 ([4]; HFL1, 72 h) is reported as 2.6 µM. It also gave an IC50 ([5]; CCD-18Co, 72 h) of 4.5 µM.
COc1cc(OC)c(-c2cn3ccc(N4CCCC4)nc3n2)cc1C#N [Example 69, 2,4-dimethoxy-5-(7-(pyrrolidin-1-yl)imidazo[1,2-a]pyrimidin-2-yl)-benzonitrile hydrochloride] was tested, and the IC50 [1] was 0.0141 µM.
Work on COc1cc(OC)c(-c2cn3ccc(C)cc3n2)cc1Cl [Example 76, 2-(5-chloro-2,4-dimethoxyphenyl)-7-methylimidazo[1,2-a]pyridine hydrobromide] yielded an IC50 ([1]; enzyme assay) of 0.0665 µM.
Compound COc1cc(OC)c(-c2cn3ccc(N4CCN(CCC(=O)O)CC4)cc3n2)cc1Cl [Example 133, 3-(4-(2-(5-chloro-2,4-dimethoxyphenyl)imidazo[1,2-a]pyridin-7-yl)piperazin-1-yl)propanoic acid] has an IC50 ([1]; enzyme assay) of 0.0137 µM.
COc1cc(OC)c(-c2cn3ccc(C4=CCN(CCC(=O)O)CC4)cc3n2)cc1Cl [Example 141, 3-(4-(2-(5-chloro-2,4-dimethoxyphenyl)imidazo[1,2-a]pyridin-7-yl)-5,6-dihydropyridin-1(2H)-yl)propanoic acid] showed an IC50 ([1]; enzyme assay) of 0.0777 µM.
In the case of COCC(=O)N1CCN(c2ccn3cc(-c4cc(Cl)c(OC)cc4OC)nc3c2)C(C)C1 (stereo not shown) [Example 313, 1-(4-(2-(5-chloro-2,4-dimethoxyphenyl)imidazo[1,2-a]pyridin-7-yl)-3-methylpiperazin-1-yl)-2-methoxyethanone], the IC50 [2, 11] is reported as 10 µM.
In the case of COc1cc(OC)c(-c2cn3ccc(N4CCN(c5cnc(N6CCNCC6)nc5)CC4)cc3n2)cc1Cl [Example 344, 2-(5-chloro-2,4-dimethoxyphenyl)-7-(4-(2-(piperazin-1-yl)pyrimidin-5-yl)piperazin-1-yl)imidazo[1,2-a]pyridine bis(2,2,2-trifluoroacetate)], the IC50 [2, 11] is reported as 0.35 µM.
Work on COC(=O)c1ccc(CN[C@H]2CC[C@@H](Nc3ccn4cc(-c5cc(Cl)c(OC)cc5OC)nc4c3)CC2)cc1 [Example 409, methyl 4-(((cis-4-((2-(5-chloro-2,4-dimethoxyphenyl)imidazo[1,2-a]pyridin-7-yl)amino)cyclohexyl)amino)methyl)benzoate bis(2,2,2-trifluoroacetate)] yielded an IC50 [2, 11] of 0.86 µM.
Compound COc1cc(OC)c(-c2cn3ccc(N4CC[C@H](NCC5CCN(S(=O)(=O)C6CC6)CC5)C4)cc3n2)cc1Cl [Example 421, (S)-1-(2-(5-chloro-2,4-dimethoxyphenyl)imidazo[1,2-a]pyridin-7-yl)-N-((1-(cyclopropylsulfonyl)piperidin-4-yl)methyl)pyrrolidin-3-amine] has an IC50 [2, 11] of 0.94 µM.
